Measurements: ChEMBL document CHEMBL5728605, “Aromatic acetylene or aromatic ethylene compound, intermediate, preparation method, pharmaceutical composition and use thereof” (2021)

Biological target: Programmed cell death protein 1/Programmed cell death 1 ligand 1 (Homo sapiens, UniProt Q15116+Q9NZQ7)
Experiment: Homogeneous Time-Resolved Fluorescence (HTRF) Binding Assay: 1. The compound was formulated to 10 concentrations with a 3-fold gradient with 100% DMSO.2. The solution of the compound in DMSO was added to Dilute Buffer, mixed thoroughly, then transferred to a 96-well plate.3. PD-L1 was diluted with Dilute Buffer, then added to the above 96-well plate.4. PD-1 was diluted with Dilute Buffer and added to the above 96-well plate, which was then incubated at room temperature for 30 minutes.5. A portion of anti-tag1-Eu and a portion of anti-tag2-XL665 were added to Detection Buffer, mixed thoroughly and transferred to the above 96-well plate.6. The mixture in the above 96-well plate was incubated at room temperature for 1 to 24 hours.7. HTRF values were read with Envision.
Format: protein-complex assay

Sequence of Programmed cell death protein 1/Programmed cell death 1 ligand 1 (Q15116 whole entry): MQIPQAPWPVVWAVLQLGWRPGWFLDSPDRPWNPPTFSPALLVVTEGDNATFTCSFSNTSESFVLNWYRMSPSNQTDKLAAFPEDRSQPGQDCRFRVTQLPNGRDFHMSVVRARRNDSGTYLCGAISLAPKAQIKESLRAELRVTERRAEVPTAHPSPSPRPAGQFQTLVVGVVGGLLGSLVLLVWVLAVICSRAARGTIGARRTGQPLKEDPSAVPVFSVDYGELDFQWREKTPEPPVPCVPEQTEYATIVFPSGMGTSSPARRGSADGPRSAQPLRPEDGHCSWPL
Sequence of Programmed cell death protein 1/Programmed cell death 1 ligand 1 (Q9NZQ7 whole entry): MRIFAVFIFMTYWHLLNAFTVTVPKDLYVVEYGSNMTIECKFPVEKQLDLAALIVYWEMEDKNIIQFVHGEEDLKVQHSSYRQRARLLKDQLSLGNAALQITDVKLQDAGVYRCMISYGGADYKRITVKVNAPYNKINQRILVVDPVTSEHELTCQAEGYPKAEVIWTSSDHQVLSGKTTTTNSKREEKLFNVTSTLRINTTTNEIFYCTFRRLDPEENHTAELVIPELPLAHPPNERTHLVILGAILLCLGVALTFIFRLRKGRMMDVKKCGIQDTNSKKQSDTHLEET

Compound	IC50 [nM]
COc1cc(/C=C/c2cccc(-c3ccccc3)c2C)cc(OC)c1CN[C@@H](C)C(=O)O	170
COc1cc(/C=C/c2cccc(-c3ccccc3)c2C)cc(OC)c1CN1CCCC[C@H]1C(=O)O	60
COc1cc(/C=C/c2cccc(-c3ccccc3)c2C)cc(OC)c1CN[C@H](CO)C(=O)O	80
COc1cc(/C=C/c2cccc(-c3ccccc3)c2C)cc(OC)c1CN[C@@H](CO)C(=O)O	50
